Earlier results as cited in US9328386B2, “Markers for susceptibility to an inhibitor of an Src-family kinase” (Evotec (München) GmbH, priority 2011, dated 2016).

Legend:
[1] = molecular target: CSK (Homo sapiens, UniProt P41240); conditions: cited from earlier work
[2] = test system: SFK; conditions: cited from earlier work
[3] = molecular target: MET (Homo sapiens, UniProt P08581); conditions: cited from earlier work
[4] = molecular target: YES (Homo sapiens, UniProt P07947); conditions: unit not given; cited from earlier work
Chain of YES (P07947 whole entry, species assumed): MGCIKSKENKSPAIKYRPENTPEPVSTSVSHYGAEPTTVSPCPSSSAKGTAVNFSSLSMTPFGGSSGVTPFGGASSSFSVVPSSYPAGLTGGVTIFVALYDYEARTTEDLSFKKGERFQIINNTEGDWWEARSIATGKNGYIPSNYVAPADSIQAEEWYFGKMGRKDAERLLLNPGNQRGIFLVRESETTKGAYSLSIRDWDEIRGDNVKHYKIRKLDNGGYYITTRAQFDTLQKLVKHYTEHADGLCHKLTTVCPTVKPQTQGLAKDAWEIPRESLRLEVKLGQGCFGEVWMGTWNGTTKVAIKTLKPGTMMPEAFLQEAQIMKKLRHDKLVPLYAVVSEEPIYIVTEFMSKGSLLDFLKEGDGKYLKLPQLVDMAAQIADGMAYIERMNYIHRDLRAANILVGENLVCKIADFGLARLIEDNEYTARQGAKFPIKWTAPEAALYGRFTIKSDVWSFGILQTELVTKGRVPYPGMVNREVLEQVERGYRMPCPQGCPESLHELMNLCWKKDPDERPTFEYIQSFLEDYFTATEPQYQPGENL

[5] = molecular target: SRC (Homo sapiens, UniProt P12931); conditions: cited from earlier work
Chain of SRC (P12931 whole entry, species assumed): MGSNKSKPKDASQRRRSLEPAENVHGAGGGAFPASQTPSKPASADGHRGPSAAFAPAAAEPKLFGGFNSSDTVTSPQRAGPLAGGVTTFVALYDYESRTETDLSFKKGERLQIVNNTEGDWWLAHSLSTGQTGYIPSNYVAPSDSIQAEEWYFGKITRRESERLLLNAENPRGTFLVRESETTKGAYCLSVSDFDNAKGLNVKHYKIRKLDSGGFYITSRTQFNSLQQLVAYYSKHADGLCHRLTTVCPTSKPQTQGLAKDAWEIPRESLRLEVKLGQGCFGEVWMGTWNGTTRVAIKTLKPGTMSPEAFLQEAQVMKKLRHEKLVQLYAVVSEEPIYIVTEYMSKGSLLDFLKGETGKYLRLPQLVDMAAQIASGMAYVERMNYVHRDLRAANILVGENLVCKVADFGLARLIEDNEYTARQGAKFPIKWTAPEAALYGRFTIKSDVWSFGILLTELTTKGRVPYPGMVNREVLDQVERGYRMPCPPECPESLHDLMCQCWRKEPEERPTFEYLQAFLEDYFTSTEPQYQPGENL

[6] = molecular target: LCK (Homo sapiens, UniProt P06239); conditions: cited from earlier work
Chain of LCK (P06239 whole entry, species assumed): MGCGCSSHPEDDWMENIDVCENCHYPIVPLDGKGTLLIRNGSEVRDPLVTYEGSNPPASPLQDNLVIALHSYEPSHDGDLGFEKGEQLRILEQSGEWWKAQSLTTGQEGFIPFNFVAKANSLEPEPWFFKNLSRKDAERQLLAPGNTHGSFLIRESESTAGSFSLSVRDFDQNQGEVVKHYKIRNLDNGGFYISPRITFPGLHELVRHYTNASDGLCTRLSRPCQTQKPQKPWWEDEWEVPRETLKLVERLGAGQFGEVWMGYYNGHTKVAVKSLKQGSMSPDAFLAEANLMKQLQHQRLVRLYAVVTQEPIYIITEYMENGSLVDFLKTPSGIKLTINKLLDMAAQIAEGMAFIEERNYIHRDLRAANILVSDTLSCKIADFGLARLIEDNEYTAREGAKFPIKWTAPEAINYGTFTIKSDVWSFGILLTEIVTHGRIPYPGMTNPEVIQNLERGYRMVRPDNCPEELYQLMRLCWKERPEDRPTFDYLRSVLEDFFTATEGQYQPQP

[7] = test system: VEGFR; conditions: cited from earlier work
[8] = molecular target: EGFR (Homo sapiens, UniProt P00533); conditions: cited from earlier work
[9] = molecular target: FGFR1 (Homo sapiens, UniProt P11362); conditions: cited from earlier work
Chain of FGFR1 (P11362 22-822, species assumed): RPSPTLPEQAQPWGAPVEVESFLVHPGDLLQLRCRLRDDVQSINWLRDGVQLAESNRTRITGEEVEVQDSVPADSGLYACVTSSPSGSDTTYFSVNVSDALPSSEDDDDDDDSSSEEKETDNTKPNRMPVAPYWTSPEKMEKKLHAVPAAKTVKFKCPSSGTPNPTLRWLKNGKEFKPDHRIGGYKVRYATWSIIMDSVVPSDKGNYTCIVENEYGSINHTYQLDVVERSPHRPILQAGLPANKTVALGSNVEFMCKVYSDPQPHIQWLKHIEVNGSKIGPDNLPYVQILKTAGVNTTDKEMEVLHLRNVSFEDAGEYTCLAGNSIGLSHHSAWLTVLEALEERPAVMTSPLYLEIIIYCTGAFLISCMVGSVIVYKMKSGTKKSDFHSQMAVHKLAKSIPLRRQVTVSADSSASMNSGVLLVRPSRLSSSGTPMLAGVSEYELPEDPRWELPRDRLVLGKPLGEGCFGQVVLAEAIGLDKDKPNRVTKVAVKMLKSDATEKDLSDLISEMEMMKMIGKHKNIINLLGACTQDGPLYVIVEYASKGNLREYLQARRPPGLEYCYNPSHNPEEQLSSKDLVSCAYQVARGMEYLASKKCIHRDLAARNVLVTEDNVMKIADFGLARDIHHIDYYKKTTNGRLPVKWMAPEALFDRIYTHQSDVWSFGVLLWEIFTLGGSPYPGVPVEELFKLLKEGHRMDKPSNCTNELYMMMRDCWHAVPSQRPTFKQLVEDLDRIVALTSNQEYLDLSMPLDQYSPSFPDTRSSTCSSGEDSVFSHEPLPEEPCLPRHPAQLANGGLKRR

Chain of CSK (P41240 whole entry, species assumed): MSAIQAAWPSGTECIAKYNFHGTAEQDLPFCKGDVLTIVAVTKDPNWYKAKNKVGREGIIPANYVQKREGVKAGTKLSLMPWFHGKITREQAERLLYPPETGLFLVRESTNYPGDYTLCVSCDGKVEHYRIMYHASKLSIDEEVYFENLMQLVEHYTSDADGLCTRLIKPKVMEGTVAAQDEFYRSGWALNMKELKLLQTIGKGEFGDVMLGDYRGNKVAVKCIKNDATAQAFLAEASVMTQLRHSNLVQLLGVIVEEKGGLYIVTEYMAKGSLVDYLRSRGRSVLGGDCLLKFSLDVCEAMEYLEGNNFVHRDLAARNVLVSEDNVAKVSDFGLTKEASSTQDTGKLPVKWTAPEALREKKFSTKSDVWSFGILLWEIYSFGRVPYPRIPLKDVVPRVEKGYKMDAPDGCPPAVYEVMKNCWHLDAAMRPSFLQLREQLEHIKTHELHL
Chain of MET (P08581 25-1390): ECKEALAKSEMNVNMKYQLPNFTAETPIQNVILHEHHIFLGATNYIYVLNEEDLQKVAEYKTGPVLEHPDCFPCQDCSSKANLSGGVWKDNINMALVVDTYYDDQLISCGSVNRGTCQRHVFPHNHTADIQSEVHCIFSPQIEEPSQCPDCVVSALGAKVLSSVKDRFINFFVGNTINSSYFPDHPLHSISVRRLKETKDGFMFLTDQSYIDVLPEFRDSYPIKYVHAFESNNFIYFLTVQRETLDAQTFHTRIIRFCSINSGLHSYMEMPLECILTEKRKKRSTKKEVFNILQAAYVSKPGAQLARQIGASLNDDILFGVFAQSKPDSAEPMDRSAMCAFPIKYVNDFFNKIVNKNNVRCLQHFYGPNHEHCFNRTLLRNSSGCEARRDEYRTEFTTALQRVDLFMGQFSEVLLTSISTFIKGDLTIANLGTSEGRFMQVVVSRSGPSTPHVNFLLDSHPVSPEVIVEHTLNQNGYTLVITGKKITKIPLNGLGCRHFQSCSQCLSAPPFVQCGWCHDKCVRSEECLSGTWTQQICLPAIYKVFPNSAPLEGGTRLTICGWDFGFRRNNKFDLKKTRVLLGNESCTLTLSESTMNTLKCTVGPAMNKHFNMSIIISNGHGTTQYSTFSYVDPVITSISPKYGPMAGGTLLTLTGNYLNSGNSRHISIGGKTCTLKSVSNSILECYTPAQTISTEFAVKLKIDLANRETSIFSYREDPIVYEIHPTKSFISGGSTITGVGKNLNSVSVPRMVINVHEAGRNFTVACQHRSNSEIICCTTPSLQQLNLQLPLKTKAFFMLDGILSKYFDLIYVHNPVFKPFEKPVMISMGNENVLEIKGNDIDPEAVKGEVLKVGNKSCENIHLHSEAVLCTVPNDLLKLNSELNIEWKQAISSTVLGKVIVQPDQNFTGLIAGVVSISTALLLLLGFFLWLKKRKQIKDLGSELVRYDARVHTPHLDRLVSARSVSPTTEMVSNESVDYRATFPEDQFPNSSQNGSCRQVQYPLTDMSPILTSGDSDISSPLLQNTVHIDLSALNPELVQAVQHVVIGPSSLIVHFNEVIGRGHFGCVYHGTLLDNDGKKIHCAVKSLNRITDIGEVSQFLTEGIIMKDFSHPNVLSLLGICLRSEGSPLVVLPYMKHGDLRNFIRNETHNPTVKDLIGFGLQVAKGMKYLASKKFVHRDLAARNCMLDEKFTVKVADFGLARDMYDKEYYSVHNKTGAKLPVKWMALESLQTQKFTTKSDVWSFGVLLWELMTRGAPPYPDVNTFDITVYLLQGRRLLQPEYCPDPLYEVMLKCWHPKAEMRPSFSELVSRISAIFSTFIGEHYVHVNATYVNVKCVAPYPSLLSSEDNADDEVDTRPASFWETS

SMILES	Affinities (basic outline) [1] [µM]	Affinities (basic outline) [2] [nM]	Affinities (basic outline) [3] [nM]	Affinities (basic outline) [4]	Affinities (basic outline) [5] [nM]	Affinities (basic outline) [6] [nM]	Affinities (basic outline) [7] [nM]	Affinities (basic outline) [8] [nM]	Affinities (basic outline) [9] [µM]
CN(C)S(=O)(=O)c1ccc2c(c1)/C(=C/c1cc3c([nH]1)CCCC3)C(=O)N2 [SU6656, (2-oxo-3-(4,5,6,7-tetrahydro-1H-indol-2-ylmethylene)-2,3-dihydro-1H-indole-5-sulfonic acid dimethylamide)]	0.007	0.02 to 6.88	3						
COc1ccc(Cl)c(Nc2ncnc3cc(OCC4CCN(C)CC4)c(OC)cc23)c1 [M475271, 4-quinazolinamine, N-(2-chloro-5-methoxyphenyl)-6-methoxy-7-[(1-methyl-4-piperidinyl)methoxy]-(9Cl)]	7.6			10	25	200	500	600	20
